Laboratory results as given in patent US6518276B2, “7-oxo-pyridopyrimidines (II)” (Syntex (U.S.A.) LLC, priority 2000, dated 2003).
Structures can show the parent of a compound that is named as a salt.

Key:
p38 MAP kinase = molecular target: T1, p38 MAP kinase (Homo sapiens, UniProt Q16539); test: in vitro inhibition of p-38 (MAP) kinase: transfer of γ-phosphate from γ-33P-ATP to Myelin Basic Protein; type: biochemical; conditions: phosphorylated recombinant p38 MAP kinase, MBP substrate, 30° C., read-out: IC50 (p-38 inhibitory activity, concentration causing 50% inhibition of the p-38 enzyme)
T1 construct: made in house; host or cells: E. coli (co-expressed with SEK-1 and MEKK to obtain the phosphorylated form)
T1 sequence (Q16539 whole entry): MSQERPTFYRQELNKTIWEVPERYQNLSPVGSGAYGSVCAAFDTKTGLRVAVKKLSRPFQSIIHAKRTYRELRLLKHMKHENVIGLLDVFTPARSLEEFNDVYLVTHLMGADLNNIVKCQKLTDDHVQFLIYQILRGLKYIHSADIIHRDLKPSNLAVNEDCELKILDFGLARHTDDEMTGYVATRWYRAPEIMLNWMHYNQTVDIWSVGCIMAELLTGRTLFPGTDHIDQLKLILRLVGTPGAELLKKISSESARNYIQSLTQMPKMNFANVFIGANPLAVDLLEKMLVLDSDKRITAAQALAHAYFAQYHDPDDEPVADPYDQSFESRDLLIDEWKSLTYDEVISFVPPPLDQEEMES
Protocol: This example illustrate an assay protocol for determining in vitro inhibition of p-38 (MAP) Kinase.
The p-38 MAP kinase inhibitory activity of compounds of this invention in vitro was determined by measuring the transfer of the γ-phosphate from γ-^33P-ATP by p-38 kinase to Myelin Basic Protein (MBP), using the a minor modification of the method described in Ahn, N. G.; et al. J. Biol. Chem. Vol. 266(7), 4220-4227, (1991).
The phosphorylated form of the recombinant p38 MAP kinase was expressed with SEK-1 and MEKK in E. Coli and then purified by affinity chromatography using a Nickel column.
The phosphorylated p38 MAP kinase was diluted in kinase buffer (20 mM 3-(N-morpholino)propanesulfonic acid, pH 7.2, 25 mM β-glycerol phosphate, 5 mM ethylene glycol-bis(beta-aminoethyl ether)-N,N,N′,N′-tetraacetic acid, 1 mM sodium vanadate, 1 mM dithiothreitol, 40 mM magnesium chloride). Test compound dissolved in DMSO or only DMSO (control) was added and the samples were incubated for 10 min at 30° C. The kinase reaction was initiated by the addition of a substrate cocktail containing MBP and γ-^33P-ATP. After incubating for an additional 20 min at 30° C., the reaction was terminated by adding 0.75% phosphoric acid. The phosphorylated MBP was then separated from the residual γ-^33P-ATP using a phosphocellulose membrane (Millipore, Bedford, Mass.) and quantitated using a scintillation counter (Packard, Meriden, Conn.).
Compounds of the invention were active in this assay. The p-38 inhibitory activities (expressed as IC50 , the concentration causing 50% inhibition of the p-38 enzyme being assayed) of some compounds of the invention are: […]

| Compound | melting point [°C] | IC50 (p38 MAP kinase) [nM] |
| --- | --- | --- |
| COC(=O)CN1CCC(CNc2ncc3cc(-c4ccccc4Cl)c(=O)[nH]c3n2)CC1.Cl | 220 to 221.1 | – |
| C[C@H](Nc1ncc2cc(-c3ccccc3Cl)c(=O)n(N)c2n1)C(C)(O)O.Cl | > 300 | – |
| CC(Nc1ncc2cc(-c3ccccc3Cl)c(=O)n(C)c2n1)C(C)S(C)(=O)=O.Cl (stereo not shown) | 142.1 to 144.3 | – |
| COCCC(C)Nc1ncc2cc(-c3ccccc3Cl)c(=O)n(C)c2n1.Cl (stereo not shown) | 156.4 to 160.2 | – |
| CN1CCC(CNc2ncc3cc(-c4ccccc4Cl)c(=O)[nH]c3n2)CC1.Cl | 213 to 220 | – |
| C[C@H](Nc1ncc2cc(-c3ccccc3Cl)c(=O)n(C)c2n1)C(C)(C)O.Cl | 194 to 195.3 | – |
| Cn1c(=O)c(-c2ccccc2Cl)cc2cnc(NC(C)(C)CO)nc21 (as salt: HCl) [Cpd 1] | 228.6 to 228.9 | – |
| C[C@H](Nc1ncc2cc(-c3ccccc3Cl)c(=O)n(-c3ccc(F)cc3)c2n1)C(C)(C)O (as salt: HCl) [Cpd 7] | 142 to 149 | – |
| C[C@H](Nc1ncc2cc(-c3ccccc3Cl)c(=O)n(C)c2n1)C(C)(C)O (as salt: HCl) [Cpd 8] | 178 to 181.5 | – |
| Cn1c(=O)c(-c2ccccc2Cl)cc2cnc(NC(C)(C)CO)nc21 [Cpd 1] | – | 52 |
| Cl.O=C(O)CN1CCC(CNc2ncc3cc(-c4ccccc4Cl)c(=O)[nH]c3n2)CC1 [Cpd 3] | 235.3 to 237.9 | 2200 |
| CN(C)C(=O)CN1CCC(CNc2ncc3cc(-c4ccccc4Cl)c(=O)[nH]c3n2)CC1.Cl [Cpd 4] | 211.8 to 212.8 | 6270 |
| C[C@@H](Nc1ncc2cc(-c3ccccc3Cl)c(=O)n(-c3ccc(F)cc3)c2n1)C(C)(C)O [Cpd 6] | 206.8 to 207.5 | – |
| C[C@H](Nc1ncc2cc(-c3ccccc3Cl)c(=O)n(-c3ccc(F)cc3)c2n1)C(C)(C)O [Cpd 7] | – | 0.3 |
| C[C@H](Nc1ncc2cc(-c3ccccc3Cl)c(=O)n(C)c2n1)C(C)(C)O [Cpd 8] | – | 31 |
| Cl.Cn1c(=O)c(-c2ccccc2Cl)cc2cnc(NC3CCC3)nc21 [Cpd 10] | 205.3 to 210.9 | 42 |
| Nn1c(=O)c(-c2ccccc2Cl)cc2cnc(NC3CCCC3)nc21 [Cpd 11] | 147 to 154 | 24 |
| C[C@H](Nc1ncc2cc(-c3ccccc3Cl)c(=O)n(C3CC3)c2n1)C(C)(C)O [Cpd 12] | – | 124 |
| CC(C)(CO)Nc1ncc2cc(-c3ccccc3Cl)c(=O)n(N)c2n1 [Cpd 13] | – | 48 |
| Cn1c(=O)c(-c2ccccc2Cl)cc2cnc(N[C@H](CO)C(C)(C)C)nc21 [Cpd 18] | 171.2 to 174 | 92 |
